Results on 12 compounds are retold here after US7087595B2, “Antihistaminic spiro compounds” (Janssen Pharmaceutica, N.V., priority 1998, dated 2006).

Where a name gives a salt, the structure may show the parent alone. Read-outs that look alike come from different tables or passages of the source.

The subject of the assay is Compound 48/80 induced Lethality. Nature of the assay: Protection of Rats from Compound 48/80 induced Lethality. As to conditions: protection from Compound 48/80 induced lethality. Type of assay: in vivo.
Where [1] appears, read: Rattus norvegicus, read-out: ED50.

With “3-(aminocarbonyl)-6,11-dihydrospiro[5H-imidazo[2,1-b][3]-benzazepine-11,4′-piperidine]-1′-carboxylate [Compound 79]”, the 50% effective dose (ED50) is reported as 0.04 mg/kg.

Take “5,6-dihydrospiro[11H-imidazo[2,1-b][3]benzazepine-11,4′-piperidine]-3-methanol (E)-2-butenedioic acid salt (2:1) [Compound 18a]”: the “ED50” value is 0.08 mg/kg.

Take `CN1CCC2(CC1)c1ccccc1CCn1ccnc12.O=S(=O)(O)NC1CCCCC1.O=S(=O)(O)NC1CCCCC1` [Compound 1, 6,11-dihydro-1′-methylspiro[5H-imidazo[2,1-b][3]benzazepine-11,4′-piperidine]cyclohexylsulfamate(1:2)]: the “ED50” value was 2.5 mg/kg.

Turning to `CCCCN1CCC2(CC1)c1ccccc1CCn1ccnc12.CCCCN1CCC2(CC1)c1ccccc1CCn1ccnc12.Cl.Cl.Cl.Cl.O` [Compound 3, 1′-butyl-5,6-dihydrospiro[imidazo[2,1-b][3]-benzazepine-11-[11H],4′-piperidine]dihydrochloride.hemihydrate], the “ED50” value stood at 2.5 mg/kg.

Take `Cl.Cl.NC(=O)c1cnc2n1CCc1ccccc1C21CCNCC1` [Compound 17, 5,6-dihydrospiro[11H-imidazo[2,1-b][3]-benzazepine-11,4′-piperidine]-3-carboxamide dihydrochloride]: the median effective dose (ED50) under setting [1] came to 0.04 mg/kg.

For `Clc1cnc2n1CCc1ccccc1C21CCNCC1.O=C(O)/C=C/C(=O)O` [Compound 20, 3-chloro-6,11-dihydrospiro[5H-imidazo[2,1-b][3]benzazepine-11,4′-piperidine] (E)-2-butenedioate (1:1)], the ED50 under setting [1] stood at 0.31 mg/kg.

As for `Cl.Cl.NC(=O)c1nc2n(c1C(N)=O)CCc1ccccc1C21CCNCC1.O` [Compound 53, 6,11-dihydrospiro[5H-imidazo[2,1-b][3]benzazepine-11,4′-piperidine]-2,3-dicarboxamide dihydrochloride monohydrate], the ED50 under setting [1] came out at 0.31 mg/kg.

`C1=Cn2ccnc2C2(CCNCC2)c2ccsc21` [Compound 56a, spiro[10H-imidazo[1,2-a]thieno[3,2-d]azepine-10,4′-piperidine]]: the ED50 under setting [1] is 2.5 mg/kg.

`COCc1cnc2n1CCc1ccccc1C21CCNCC1.O=C(O)/C=C/C(=O)O` [Compound 58, 6,11-dihydro-3-(methoxymethyl)spiro[5H-imidazo[2,1-b][3]benzazepine-11,4′-piperidine]. (E)-2-butenedioate (1:1)]: the “ED50” value was found to be 2.5 mg/kg.

As for `NC(=O)c1cnc2n1CCc1ccccc1C21CCN(CCO)CC1` [Compound 62, 6,11-dihydro-1′-(2-hydroxyetehyl)spiro[5H-imidazo[2,1-b][3]-benzazepine-11,4′-piperidine]-3-carboxamide], the “ED50” value is reported as 0.63 mg/kg.

For the compound `CCOC(=O)C(CN1CCC2(CC1)c1ccccc1CCn1c(C(N)=O)cnc12)c1ccccc1` (stereo not drawn) [Compound 64, ethyl 3-(aminocarbonyl)-6,11-dihydro-α-phenylspiro[5H-imidazo-[2,1-b][3]benzazepine-11,4′-piperidine]-1′-propanoate monohydrochloride], the median effective dose (ED50) under setting [1] was determined as 0.31 mg/kg.

Take `CN1CCC2(CC1)c1ccccc1CCn1c(C(N)=O)cnc12.O` [Compound 80, 6,11-dihydro-1′-methylspiro[5H-imidazo[2,1-b][3]benzazepine-11,4′-piperidine]-3-carboxamide monohydrate]: under setting [1], the median effective dose (ED50) is 0.63 mg/kg.
